Earlier results in patent US20100047341A1, “COMBINED PREPARATION FOR THE TREATMENT OF CARDIOVASCULAR DISEASES BASED ON CHRONOTHERAPY THEORY” (HANALL PHARMACEUTICAL CO., LTD., priority 2006, published 2010).

Structure (SMILES): CCCCc1nc(Cl)c(CO)n1Cc1ccc(-c2ccccc2-c2nn[nH]n2)cc1 [Losartan, 2-butyl-4chloro-1-[p-(o-1H-tetrazol-5-ylphenyl)benzyl]imidazole-5-methanol]
- time to maximum level in blood (losartan itself as active form released from the liver to blood): an hour

Structure (SMILES): CCCCc1nc(Cl)c(C(=O)O)n1Cc1ccc(-c2ccccc2-c2nn[nH]n2)cc1 [losartan carboxylate]
- time to maximum plasma concentration (after the conversion of losartan in the liver): 3 to 4 h
